row,Compound,melting point
1,c1cnc2[nH]cc(C3CN4CCC3CC4)c2c1 (stereo unspecified),185 °C
2,O=C(NC1CCCCC1)NS(=O)(=O)c1ccc(CCNC(=O)N2CC3CCCCC3C2=O)cc1 (stereo unspecified),139 to 140 °C
3,CC1CNc2cc(C3=NNC(=O)CC3)ccc2O1 (stereo unspecified),294 to 296 °C
4,CC1CN(c2cccc(F)c2)N=C1N (stereo unspecified),78 to 80 °C
5,COc1cccc(C2=C(C#N)C(c3ccccc3[N+](=O)[O-])c3c[nH]nc3N2)c1 (stereo unspecified),220 °C
6,CC(C)NC(C)Cc1ccc(O)cn1 (stereo unspecified),135 to 138 °C
7,Cc1noc(NS(=O)(=O)c2cc(OCc3ccccc3)ccc2-c2ccc(CC(C)C)cc2)c1C,96 to 101 °C
8,CCOC(=O)C(NC(=O)C[N+](=O)[O-])C(=O)OCC,118 to 121 °C
9,C#CCOCC(CC)(OC)c1cccc(OCc2ccc3ccccc3c2)c1 (stereo unspecified),54 °C
10,CC(c1oc2ccccc2c(=O)c1-c1cccc(F)c1)n1nc(-c2ccc3[nH]ccc3c2)c2c(N)ncnc21 (stereo unspecified),197 to 199 °C
11,CCCc1c(OCCCCCCc2cc(C)c(O)c(O)c2C)ccc(C(=O)O)c1O,170 to 171 °C
12,CC(CCc1ccccc1)NC(CO)C(O)c1ccc(S(C)(=O)=O)cc1 (stereo unspecified),120 to 122 °C
13,Cc1cc(C(=O)NC2CC(C)(C)NC(C)(C)C2)c(C)o1,116 to 118 °C
14,CNC(=O)c1ccc(-c2ccc(NC(=O)NCc3cccnc3)cc2)nc1NCCN(C)C,163 to 165 °C
15,OC(Cc1ccc(Cl)cc1)(Cn1ccnc1)c1ccc(-c2ccccc2)cc1 (stereo unspecified),182 °C
16,N#Cc1cccc(C2=Nc3ccc(C#Cc4ccc(F)cc4)cc3NC(=O)C2)c1,245 to 246 °C
17,CCCCc1oc2ccccc2c1C(=O)O,106 to 110 °C
18,CCOC(=O)Nc1ccc(N2N=C(C)C(=CNc3ccccc3OC)C2=O)cc1,212 °C
19,CCCCCCN(C(=O)Nc1ccc(C(=O)O)cc1)c1ccc2c(c1)C(C)(C)CCC2(C)C,177 °C
20,OC(CN1CCNC1=S)c1ccc(F)cc1 (stereo unspecified),130 °C
21,CCC1C(c2ccc(OC(Cl)C(=O)O)cc2Cl)=CC(=O)CC1C (stereo unspecified),183 °C
22,O=S(=O)(c1ccc(O)cc1)c1c(-c2ccccc2)cn2ccccc12,234 °C
23,CCC(=O)Nc1ccc(-c2c[nH]c(=O)cn2)cc1,270 to 272 °C
24,CC(C)NC(=N)NC(=N)NOCCCOc1ccc(Cl)cc1,98 to 100 °C
25,CCCOc1cc(-c2cc(C=CC(=O)O)ccc2O)cc2c1C(C)(C)CCC2(C)C,114 to 116 °C
26,COc1cccc([C@H]2O[C@H](CC(=O)Nc3cc(CCC(=O)O)ccc3F)C(=O)N(CC(C)(C)CO)c3ccc(Cl)cc32)c1OC,151 to 152 °C

row,Compound,melting point
1,CC(C)(C)C(=O)CN1C(=O)c2ccccc2C1=O,96 to 99 °C
2,O=c1oc(-c2ccccc2)cc(O)c1C(Sc1ccccc1)C1CCCCC1 (stereo unspecified),87 to 90 °C
3,Cc1cc(C)c(-n2c(C)c(C)c3c(C#N)nc(C)nc32)c(C)c1,188 to 190 °C
4,O=C(O)c1cccc2ccc3c4ccccc4[nH]c3c12,343 °C
5,C=CC1(C)OC(=O)c2ccc(Oc3ccc(C(F)(F)F)cc3Cl)cc21 (stereo unspecified),71 to 73 °C
6,CCOC(=O)C1=CC(=O)C2(C(=O)c3ccc(Cl)cc3)OC2O1 (stereo unspecified),100 °C
7,Clc1nc(-c2ccncc2)cs1,124 to 125 °C
8,COc1ccc2sc3c(c2c1)SCCNC3=O,209 to 210 °C
9,CC(=O)SCC(=Cc1ccc(C(F)(F)F)cc1)C(=O)NCCC(=O)OCc1ccccc1,79 °C
10,CC#CCn1nc(-c2ccc(F)cc2)c(-c2ccc(S(C)(=O)=O)cc2)cc1=O,81 to 82 °C
11,CS(=O)c1ccc(-c2nn3c(c2-c2ccncc2)NCCC3)cc1 (stereo unspecified),201 to 202 °C
12,COc1ccccc1-n1c(=O)[nH]c2c(C(N)=O)nc(Nc3ccc(O)cc3)nc21,223 to 224 °C
13,CN(C)C(=O)Nc1ccc(-c2c[nH]c(=O)cn2)cc1,256 to 260 °C
14,NC(Cc1nc2cc(F)c(F)cc2nc1CP(=O)(O)O)C(=O)O (stereo unspecified),144 to 145 °C
15,Nc1c([N+](=O)[O-])cc(F)c(Cl)c1Br,146 to 147 °C
16,Clc1cccc(-c2n[nH]cc2-c2ccnc(NCc3ccccc3)c2)c1,179 to 180 °C
17,CN(C)C(=O)CCc1c[nH]c(-c2cccs2)c1,107 to 109 °C
18,CC(C(=O)O)c1ccc(-c2ccc(F)cc2)c(Br)c1 (stereo unspecified),129 to 131 °C
19,CCOC(C)OCC(O)CN1C(CO)=Cc2ccsc2S1(=O)=O (stereo unspecified),95 to 97 °C
20,CCCCCCCCCCCCCCOC(=O)c1cc(Cl)c(N2N=C(Nc3cc(N4CCCC4=O)ccc3Cl)CC2=O)c(Cl)c1,143 to 146 °C
21,Cc1cc(O)c(C)c(Br)c1C,86 to 88 °C
22,COCCOC(=O)c1ccccc1Nc1nc(Nc2cc3c(cc2OC)CCN(CCO)CC3)ncc1Cl,125 to 131 °C
23,CCSC1CC2(C)C(CCC3C4CCC(C(C)=O)C4(C)CC(=O)C32)CC1O (stereo unspecified),170 to 173 °C
24,Cc1nc2ncnn2c(O)c1F,273 °C
25,CS(=O)(=O)c1ccc(C(Cc2ccc(F)cc2)C(=O)Nc2nc3ccccc3o2)cc1 (stereo unspecified),109 to 110 °C
